Source: patent EP0054756A2, “Antibacterial benzylpyrimidines” (THE WELLCOME FOUNDATION LIMITED, priority 1980, dated 1982)
Converted amounts (≈) assume the structure as drawn. “And” between values parts separate entries of the source, which are not always exact repeats. Equal entries are not always repeated. Where two headings read alike, the source gives them in different places.

Experiments:
[1] = system: St. pyogenes; experiment: In vitro antibacterial activity (MIC); assay type: cell-based; conditions: for MIC: Streptococcus pyogenes
[2] = system: Staphylococcus aureus; experiment: In vitro MIC against bovine mastitis strains; assay type: cell-based; conditions: "OXFORD", Internal Ref. No. 6571, read-out: Approximate MIC
[3] = system: Staph.aureus CN 491; experiment: In vitro antibacterial activity (MIC); assay type: cell-based; conditions: for MIC: Staphylococcus aureus
[4] = system: E. coli CN 314; experiment: In vitro antibacterial activity (MIC); assay type: cell-based; conditions: Escherichia coli, CN314
[5] = system: Strep.Faecalis CN 478; experiment: In vitro antibacterial activity (MIC); assay type: cell-based; conditions: for MIC: Enterococcus faecalis, CN478
[6] = system: Staphylococcus aureus; experiment: In vitro MIC against bovine mastitis strains; assay type: cell-based; conditions: read-out: Approximate MIC
Excerpt: (§1) All organisms were isolated from the bovine udder.

[7] = system: Streptococcus dysgalactiae; experiment: In vitro MIC against bovine mastitis strains; assay type: cell-based; conditions: read-out: Approximate MIC
Excerpt: as §1

[8] = system: Streptococcus uberis; experiment: In vitro MIC against bovine mastitis strains; assay type: cell-based; conditions: Internal Ref. No. 359, isolated from the bovine udder, read-out: Approximate MIC
Excerpt: as §1

[9] = system: Streptococcus agalactiae; experiment: In vitro MIC against bovine mastitis strains; assay type: cell-based; conditions: read-out: Approximate MIC
Excerpt: as §1

[10] = system: N. gonorrhea; experiment: In vitro antibacterial activity versus TMP, Difco test; assay type: cell-based; conditions: activity relative to trimethoprim
[11] = target: Dihydrofolate reductase (Plasmodium berghei, UniProt Q27713); experiment: biochemical; conditions: P. berghei enzyme; read-out: Dihydrofolate reductase inhibition, I50 x 10^8
[12] = system: N. gonorrhea; experiment: In vitro antibacterial activity versus TMP, Wellcome test; assay type: cell-based; conditions: activity relative to trimethoprim
[13] = target: Dihydrofolate reductase (Neisseria gonorrhoeae, UniProt P04174); experiment: biochemical; conditions: N. gonorrhea enzyme; read-out: Dihydrofolate reductase inhibition, I50 x 10^8
[14] = target: Dihydrofolate reductase (Escherichia coli, UniProt P0ABQ4); experiment: Dihydrofolate reductase inhibition; assay type: biochemical, E. coli
[15] = target: T1, Dihydrofolate reductase (Rattus norvegicus, UniProt Q920D2); experiment: Dihydrofolate reductase inhibition; assay type: biochemical, Rat liver
T1 construct: Rat liver; from tissue; host or cells: rat liver
T1 sequence (Q920D2 1-187): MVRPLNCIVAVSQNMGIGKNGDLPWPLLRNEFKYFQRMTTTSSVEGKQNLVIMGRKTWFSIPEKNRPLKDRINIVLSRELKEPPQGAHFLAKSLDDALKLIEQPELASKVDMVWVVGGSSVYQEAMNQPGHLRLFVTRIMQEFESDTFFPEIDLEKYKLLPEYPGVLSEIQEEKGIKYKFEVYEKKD

[16] = LD50 intraperitoneal in male rats; conditions: rat, in vivo, ip
Description: The LD50's ( expressed in rng/kg intraperitoneal) of two compounds of the present invention were determined in male rats.

[17] = Internal Ref. No. 316, isolated from the bovine udder
[18] = Internal Ref. No. 317, isolated from the bovine udder
[19] = Internal Ref. No. 348, isolated from the bovine udder
[20] = Internal Ref. No. 349, isolated from the bovine udder
[21] = Internal Ref. No. 352, isolated from the bovine udder
[22] = Internal Ref. No. 353, isolated from the bovine udder
[23] = Internal Ref. No. 366, isolated from the bovine udder
[24] = Internal Ref. No. 367, isolated from the bovine udder
[25] = Internal Ref. No. 321, isolated from the bovine udder
[26] = Internal Ref. No. 371, isolated from the bovine udder
[27] = read-out: MIC St. pyogenes CN 10
[28] = read-out: MIC St. pyogenes S3640

SMILES | MIC [2] | MIC [4] | MIC [5] | MIC [6, 17] | MIC [6, 18] | MIC [6, 19] | MIC [6, 20] | MIC [6, 21] | MIC [6, 22] | MIC [7, 23] | MIC [7, 24] | MIC [8] | MIC [9, 25] | MIC [9, 26] | Act., vs TMP N. gonorrhea Difco test [10] | MIC [1, 27] | MIC [1, 28] | IC50 [13] | IC50 [14] | IC50 [15] | other results
COc1cc(Cc2cnc(N)nc2N)cc(OC)c1OC [Trimethoprim, reference compound] | 1 µM (≈ 0.29 µg/mL) | 0.1 µg/mL (≈ 0.344 µM) | 0.1 µg/mL (≈ 0.344 µM) | 1 µM (≈ 0.29 µg/mL) | 0.33 µM (≈ 0.0958 µg/mL) | 1 µM (≈ 0.29 µg/mL) | 1 µM (≈ 0.29 µg/mL) | 3.3 µM (≈ 0.958 µg/mL) | 1 µM (≈ 0.29 µg/mL) | 3.3 µM (≈ 0.958 µg/mL) | 1 µM (≈ 0.29 µg/mL) | 10 µM (≈ 2.9 µg/mL) | 1 µM (≈ 0.29 µg/mL) | 3.3 µM (≈ 0.958 µg/mL) | – | – | – | – | – | – | MIC ([1]; strain CN 10, cell prints compound/trimethoprim, read-out: MIC St. pyogenes CN 10): 0.5 µg/mL (≈ 1.72 µM); MIC St. pyogenes CN 10 ([1]; strain CN 10, cell prints compound/trimethoprim): 0.3/0.3 ug/ml and 0.3 ug/ml; MIC ([3]; CN491, strain CN 491, cell prints compound/trimethoprim): 0.5 µg/mL (≈ 1.72 µM); MIC Staph.aureus CN 491 ([3]; strain CN 491, cell prints compound/trimethoprim): 0.3 ug/ml and 0.3/0.3 ug/ml and 0.5/0.5 ug/ml; MIC Strep.Faecalis CN 478 ([5]; strain CN 478, cell prints compound/trimethoprim): 0.1 µg/mL (≈ 0.344 µM)
COc1cc(Cc2cnc(N)nc2N)cc(OCCCc2ccccc2)c1OC [compound 1, 2,4-Diamino-5-(3,4-dimethoxy-5-(3-phenylpropoxy)benzyl)pyrimidine] | 0.025 µM (≈ 0.00986 µg/mL) | 1 µg/mL (≈ 2.54 µM) | 0.1 µg/mL (≈ 0.254 µM) | 0.025 µM (≈ 0.00986 µg/mL) | 0.025 µM (≈ 0.00986 µg/mL) | 0.025 µM (≈ 0.00986 µg/mL) | 0.025 µM (≈ 0.00986 µg/mL) | 0.075 µM (≈ 0.0296 µg/mL) | 0.025 µM (≈ 0.00986 µg/mL) | 0.75 µM (≈ 0.296 µg/mL) | 0.25 µM (≈ 0.0986 µg/mL) | 2.5 µM (≈ 0.986 µg/mL) | 0.075 µM (≈ 0.0296 µg/mL) | 0.75 µM (≈ 0.296 µg/mL) | 12.81 | 0.3 µg/mL (≈ 0.761 µM) | 0.3 µg/mL (≈ 0.761 µM) | 15 nM | 4.8 nM | 94000 nM | IC50 [11]: 100 nM; Act., vs TMP N. gonorrhea Wellcome test [12]: 5.46; MIC ([3]; CN491): 0.03 µg/mL (≈ 0.0761 µM); LD50 [16]: > 100 mg/kg
COc1cccc(CCCOc2cc(Cc3cnc(N)nc3N)cc(OC)c2OC)c1 [compound 2, 2,4-Diamino-5-(3,4-dimethoxy-5-(3-(m-methoxyphenyl)propoxy)benzyl)pyrimidine] | 0.025 µM (≈ 0.0106 µg/mL) | 10 µg/mL (≈ 23.6 µM) | 0.3 µg/mL (≈ 0.707 µM) | 0.025 µM (≈ 0.0106 µg/mL) | 0.025 µM (≈ 0.0106 µg/mL) | 0.025 µM (≈ 0.0106 µg/mL) | 0.025 µM (≈ 0.0106 µg/mL) | 0.075 µM (≈ 0.0318 µg/mL) | 0.025 µM (≈ 0.0106 µg/mL) | 0.75 µM (≈ 0.318 µg/mL) | 0.25 µM (≈ 0.106 µg/mL) | 2.5 µM (≈ 1.06 µg/mL) | 0.25 µM (≈ 0.106 µg/mL) | 0.75 µM (≈ 0.318 µg/mL) | 9.63 | 1 µg/mL (≈ 2.36 µM) | 1 µg/mL (≈ 2.36 µM) | 18 nM | 57 nM | 83000 nM | IC50 [11]: 57 nM; Act., vs TMP N. gonorrhea Wellcome test [12]: 3.20; MIC ([3]; CN491): 0.3 µg/mL (≈ 0.707 µM); LD50 [16]: > 100 mg/kg
COc1cc(Cc2cnc(N)nc2N)cc(OCCCCc2ccccc2)c1OC [compound 3, 2,4-Diamino-5-(3,4-dimethoxy-5-(4-phenylbutoxy)benzyl)pyrimidine] | 0.025 µM (≈ 0.0102 µg/mL) | 3 µg/mL (≈ 7.34 µM) | 0.1 µg/mL (≈ 0.245 µM) | 0.075 µM (≈ 0.0306 µg/mL) | 0.025 µM (≈ 0.0102 µg/mL) | 0.075 µM (≈ 0.0306 µg/mL) | 0.075 µM (≈ 0.0306 µg/mL) | 0.075 µM (≈ 0.0306 µg/mL) | 0.025 µM (≈ 0.0102 µg/mL) | 0.75 µM (≈ 0.306 µg/mL) | 0.75 µM (≈ 0.306 µg/mL) | 0.25 µM (≈ 0.102 µg/mL) | 0.25 µM (≈ 0.102 µg/mL) | 0.25 µM (≈ 0.102 µg/mL) | 11.35 | 0.1 µg/mL (≈ 0.245 µM) | 0.1 µg/mL (≈ 0.245 µM) | 18 nM | 2.3 nM | 43000 nM | IC50 [11]: 11 nM; Act., vs TMP N. gonorrhea Wellcome test [12]: 1.54; MIC ([3]; CN491): 0.03 µg/mL (≈ 0.0734 µM)
COc1cc(Cc2cnc(N)nc2N)cc(OCCOCc2ccccc2)c1OC [compound 4, 2,4-Diamino-5-(3,4-dimethoxy-5-(2-benzyloxyethoxy)benzyl)pyrimidine] | 0.075 µM (≈ 0.0308 µg/mL) | – | – | 0.25 µM (≈ 0.103 µg/mL) | 0.075 µM (≈ 0.0308 µg/mL) | 0.25 µM (≈ 0.103 µg/mL) | 0.075 µM (≈ 0.0308 µg/mL) | 0.25 µM (≈ 0.103 µg/mL) | 0.075 µM (≈ 0.0308 µg/mL) | 3.3 µM (≈ 1.35 µg/mL) | 1 µM (≈ 0.41 µg/mL) | 2.5 µM (≈ 1.03 µg/mL) | 0.25 µM (≈ 0.103 µg/mL) | 2.5 µM (≈ 1.03 µg/mL) | – | – | – | 78 nM | 5.4 nM | 300000 nM | –
COc1cc(Cc2cnc(N)nc2N)cc(OCCCOc2ccccc2)c1OC [compound 5, 2,4-Diamino-5-(3,4-dimethoxy-5-(3-phenoxypropoxy)benzyl)pyrimidine] | – | 1 µg/mL (≈ 2.44 µM) | 0.1 µg/mL (≈ 0.244 µM) | – | – | – | – | – | – | – | – | – | – | – | 11.28 | 0.3 µg/mL (≈ 0.731 µM) | 0.3 µg/mL (≈ 0.731 µM) | 32 nM | 37 nM | 80000 nM | IC50 [11]: 150 nM; Act., vs TMP N. gonorrhea Wellcome test [12]: 4.12; MIC ([3]; CN491): 0.1 µg/mL (≈ 0.244 µM)
